Source: patent US20250120988A1, “SMALL MOLECULE COMPOUND FOR TREATING ISCHEMIC STROKE, ITS PREPARATION METHOD, AND APPLICATION” (SHANGHAI SIXTH PEOPLE'S HOSPITAL, priority 2023, published 2025)

What was measured:
[1] = test system: CHO cells transfected with ASIC1a; test: PI cell death staining of ASIC1a-transfected CHO cells treated with glutamate at pH 7; assay type: cell-based, Chinese hamster; details: 10 μM; 500 μM glutamate, pH 7, 1 hour
Method: Figure a illustrates cortical neurons staining from wild-type (ASIC1a+/+) and gene-deficient (ASIC1a−/−) mice primary cultures in the calcein-PI staining experiment. Blue green represents viable cells, and red represents dead cell nuclei. 10 μM CGS19755 and 10 μM LK-2 were added respectively in the cell culture medium under pH 7.0 conditions with OGD to be treated for 1 hour. Figure c illustrates, after being treated in the same experimental groups as Figure a, the analysis of each group of LDH of relative release levels. Figure d illustrates PI staining of ASIC1a-transfected CHO cells after 1 hour of treatment with pH 7.0 and 500 μM glutamate (Glu). […]
Taking into consideration that in addition to ASIC1a, neurons also express multiple membrane proteins that can be activated and lead to cell death during OGD, in order to more accurately verify that cell death is caused by glutamate activation of ASIC1a and that LK-2 indeed competitively antagonizes the glutamate so as to reduce cell death, we conducted the following experiment: CHO cells transfected with ASIC1a-GFP were divided into a control group (500 μM glutamate) and a drug intervention group (500 μM glutamate+10 μM LK-2). […] Live and dead cell nuclei were determined by observing under a 40× objective using excitation wavelengths of 488 nm and 546 nm. The number of stained cell nuclei was counted using Image-J software.

GluN1+NR2B = target: T1, GluN1+NR2B (Homo sapiens, UniProt Q05586+Q13224); test: Whole-cell patch clamp, blocking of GluN1+NR2B NMDAR current in CHO cells; assay type: cell-based; details: 100 μM NMDA and 1 μM glycine, read-out: IC50 of competitive antagonism against glutamate binding GluN1+NR2B currents
T1 construct: expressed in transfected cells; host or cells: CHO cells
Method: Figure a illustrates LK-2 concentration-dependent blocking of signal of GluN1+GluN2A and GluN1+GluN2B subtypes of NMDAR currents (recorded from the same CHO cell) in patch clamp experiments, with 100 μM NDMA and 1 μM glycine used to activate NMDAR currents. LK-2 concentrations were 1, 10, 100, and 500 μM in sequence. Figure b illustrates the dose-response curves fitted based on the current amplitudes recorded in Figure a, with IC50 representing the half-maximal inhibitory concentration. Smaller IC50 values indicate stronger blocking effects of the compound.
[drawing 3] • 2. Electrophysiological experiments refer to the use of patch clamp techniques to overexpress ASICs (ASIC1a) and NMDARs (GluNR1+NR2A or GluNR1+NR2B) in CHO cell lines (Chinese hamster ovary cells), with the above-mentioned proteins carrying GFP green fluorescent protein for identification under fluorescence microscopy. The synthesized small molecules are separately tested for their blocking effects on the currents generated by the two types of receptors, and the IC50 values are calculated. • 2.1 The experimental steps of the membrane clamp technique are as follows.
Whole-cell patch clamp recordings were performed on neurons or CHO cells cultured in a cell-culture dish mounted on a fixed stage upright microscope. The recording electrode (resistance 4-6 MΩ) was made of 1.5 mm borosilicate glass. […]

T1 sequence (Q13224 27-1484, other chains not shown): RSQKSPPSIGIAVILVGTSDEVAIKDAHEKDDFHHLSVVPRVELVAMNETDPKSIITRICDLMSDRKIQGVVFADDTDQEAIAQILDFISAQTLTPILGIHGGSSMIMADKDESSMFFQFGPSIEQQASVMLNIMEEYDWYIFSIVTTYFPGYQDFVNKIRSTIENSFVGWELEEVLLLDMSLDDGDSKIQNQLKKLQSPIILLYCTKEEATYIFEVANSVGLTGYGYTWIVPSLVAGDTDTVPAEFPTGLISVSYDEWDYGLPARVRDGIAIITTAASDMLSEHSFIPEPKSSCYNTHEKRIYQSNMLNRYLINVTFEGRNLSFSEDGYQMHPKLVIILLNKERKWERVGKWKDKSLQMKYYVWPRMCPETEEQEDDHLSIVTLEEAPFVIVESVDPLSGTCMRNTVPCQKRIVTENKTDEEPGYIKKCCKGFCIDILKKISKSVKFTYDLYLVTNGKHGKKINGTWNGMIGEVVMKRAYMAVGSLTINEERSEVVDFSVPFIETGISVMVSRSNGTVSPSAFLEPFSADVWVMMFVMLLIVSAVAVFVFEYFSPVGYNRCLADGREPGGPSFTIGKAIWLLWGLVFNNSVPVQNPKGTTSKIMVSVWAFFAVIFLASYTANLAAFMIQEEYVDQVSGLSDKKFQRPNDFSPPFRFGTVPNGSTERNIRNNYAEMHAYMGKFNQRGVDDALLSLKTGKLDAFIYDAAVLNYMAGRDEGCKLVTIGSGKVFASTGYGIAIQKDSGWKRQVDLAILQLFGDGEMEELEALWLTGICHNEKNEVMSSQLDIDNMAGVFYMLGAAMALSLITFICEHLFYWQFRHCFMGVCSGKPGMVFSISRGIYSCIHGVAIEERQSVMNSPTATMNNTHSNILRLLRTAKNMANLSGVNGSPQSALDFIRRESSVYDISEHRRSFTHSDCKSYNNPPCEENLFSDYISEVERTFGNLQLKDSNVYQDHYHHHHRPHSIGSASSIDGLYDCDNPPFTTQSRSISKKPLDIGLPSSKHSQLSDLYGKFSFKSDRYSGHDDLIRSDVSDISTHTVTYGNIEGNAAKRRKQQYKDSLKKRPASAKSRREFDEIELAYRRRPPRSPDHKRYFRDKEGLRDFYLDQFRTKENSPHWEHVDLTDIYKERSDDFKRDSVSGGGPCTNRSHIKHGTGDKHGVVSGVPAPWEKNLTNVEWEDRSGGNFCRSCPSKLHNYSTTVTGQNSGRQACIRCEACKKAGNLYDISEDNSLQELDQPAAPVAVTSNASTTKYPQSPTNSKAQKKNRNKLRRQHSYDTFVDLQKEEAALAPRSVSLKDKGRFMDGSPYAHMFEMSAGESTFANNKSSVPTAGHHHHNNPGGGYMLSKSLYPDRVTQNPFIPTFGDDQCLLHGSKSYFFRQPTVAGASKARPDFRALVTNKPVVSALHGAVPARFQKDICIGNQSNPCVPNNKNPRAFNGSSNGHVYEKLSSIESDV

SMILES: O=C(O)C1CN(C(c2ccccc2)P(=O)(O)O)CCN1 (centres unmarked) [LK-2]
- reduction of death rate of transfected cells [1]: 40%
- IC50 (GluN1+NR2B): 386 ± 109 µM
